Fc1c(I)c(F)c(I)c(F)c1I
Conditions | solubility (mole fraction)
in 1,2-dichloroethane, 290.15 K | 2.33e-05
in 1,2-dichloroethane, 295.15 K | 4.22e-05
in 1,2-dichloroethane, 299.15 K | 6.13e-05
in 1,2-dichloroethane, 302.15 K | 8.17e-05
in 1,2-dichloroethane, 305.15 K | 0.000106
in 1,2-dichloroethane, 308.15 K | 0.000131
in 1,2-dichloroethane, 311.15 K | 0.000153
in 1,2-dichloroethane, 314.15 K | 0.000181
in 1,2-dichloroethane, 317.15 K | 0.000207
in 1,2-dichloroethane, 320.15 K | 0.000224
in 1,2-dichloroethane, 325.15 K | 0.000242
in 1,2-dichloroethane, 330.15 K | 0.000263
in 1,4-dioxane, 290.15 K | 0.00028
in 1,4-dioxane, 295.15 K | 0.000334
in 1,4-dioxane, 299.15 K | 0.000387
in 1,4-dioxane, 302.15 K | 0.000413
in 1,4-dioxane, 305.15 K | 0.000456
in 1,4-dioxane, 308.15 K | 0.000506
in 1,4-dioxane, 311.15 K | 0.000553
in 1,4-dioxane, 314.15 K | 0.000593
in 1,4-dioxane, 317.15 K | 0.000641
in 1,4-dioxane, 320.15 K | 0.000697
in 1,4-dioxane, 325.15 K | 0.000773
in 1,4-dioxane, 330.15 K | 0.00088
in THF, 290.25 K | 0.00478
in THF, 295.45 K | 0.00497
in THF, 299.85 K | 0.00511
in THF, 305.15 K | 0.00534
in THF, 310.25 K | 0.00555
in THF, 315.35 K | 0.00578
in THF, 320.15 K | 0.00601
in THF, 326.15 K | 0.0063
in THF, 330.35 K | 0.00648
in acetone, 290.15 K | 2.02e-05
in acetone, 295.15 K | 3.22e-05
in acetone, 299.15 K | 4.55e-05
in acetone, 302.15 K | 5.89e-05
in acetone, 305.15 K | 7.48e-05
in acetone, 308.15 K | 9.01e-05
in acetone, 311.15 K | 0.000107
in acetone, 314.15 K | 0.000127
in acetone, 317.15 K | 0.000144
in acetone, 320.15 K | 0.000162
in acetone, 325.15 K | 0.000182
in acetone, 330.15 K | 0.000202
in acetonitrile, 290.35 K | 0.00382
in acetonitrile, 295.85 K | 0.00415
in acetonitrile, 301.55 K | 0.00469
in acetonitrile, 306.95 K | 0.00536
in acetonitrile, 310.15 K | 0.00568
in acetonitrile, 316.95 K | 0.00636
in acetonitrile, 321.55 K | 0.00722
in acetonitrile, 327.35 K | 0.00842
in acetonitrile, 332.15 K | 0.00917
in ethanol, 290.15 K | 0.00057
in ethanol, 295.15 K | 0.000735
in ethanol, 299.15 K | 0.000874
in ethanol, 302.15 K | 0.000962
in ethanol, 305.15 K | 0.00108
in ethanol, 308.15 K | 0.00119
in ethanol, 311.15 K | 0.00128
in ethanol, 314.15 K | 0.00138
in ethanol, 317.15 K | 0.00149
in ethanol, 320.15 K | 0.0016
in ethanol, 325.15 K | 0.00174
in ethanol, 330.15 K | 0.00193
in ethyl acetate, 290.15 K | 0.000485
in ethyl acetate, 295.15 K | 0.000621
in ethyl acetate, 299.15 K | 0.000756
in ethyl acetate, 302.15 K | 0.00086
in ethyl acetate, 305.15 K | 0.000976
in ethyl acetate, 308.15 K | 0.00107
in ethyl acetate, 311.15 K | 0.00118
in ethyl acetate, 314.15 K | 0.00128
in ethyl acetate, 317.15 K | 0.00136
in ethyl acetate, 320.15 K | 0.00145
in ethyl acetate, 325.15 K | 0.00155
in ethyl acetate, 330.15 K | 0.00167
in isopropanol, 291.25 K | 0.00214
in isopropanol, 296.35 K | 0.00291
in isopropanol, 301.45 K | 0.00369
in isopropanol, 306.45 K | 0.00432
in isopropanol, 311.45 K | 0.00523
in isopropanol, 316.55 K | 0.00598
in isopropanol, 321.45 K | 0.00681
in isopropanol, 326.85 K | 0.00745
in isopropanol, 331.55 K | 0.00802
in methanol, 290.15 K | 2.24e-05
in methanol, 295.15 K | 3.71e-05
in methanol, 299.15 K | 5.15e-05
in methanol, 302.15 K | 6.58e-05
in methanol, 305.15 K | 8.12e-05
in methanol, 308.15 K | 9.61e-05
in methanol, 311.15 K | 0.00011
in methanol, 314.15 K | 0.000121
in methanol, 317.15 K | 0.000131
in methanol, 320.15 K | 0.00014
in methanol, 325.15 K | 0.00015
in methanol, 330.15 K | 0.000154
in n-hexane, 289.25 K | 0.0059
in n-hexane, 293.55 K | 0.00643
in n-hexane, 298.85 K | 0.00732
in n-hexane, 303.85 K | 0.00818
in n-hexane, 308.95 K | 0.00908
in n-hexane, 313.75 K | 0.0101
in n-hexane, 318.55 K | 0.0116
in n-hexane, 324.25 K | 0.0134
in n-hexane, 329.35 K | 0.0149
in n-propanol, 291.25 K | 0.00216
in n-propanol, 296.35 K | 0.00274
in n-propanol, 301.35 K | 0.00325
in n-propanol, 306.35 K | 0.00366
in n-propanol, 311.65 K | 0.00417
in n-propanol, 316.55 K | 0.00482
in n-propanol, 321.55 K | 0.00531
in n-propanol, 326.45 K | 0.00585
in n-propanol, 331.45 K | 0.00643
in toluene, 290.15 K | 0.000169
in toluene, 295.15 K | 0.000217
in toluene, 299.15 K | 0.000261
in toluene, 302.15 K | 0.000294
in toluene, 305.15 K | 0.000329
in toluene, 308.15 K | 0.000368
in toluene, 311.15 K | 0.000404
in toluene, 314.15 K | 0.000444
in toluene, 317.15 K | 0.000479
in toluene, 320.15 K | 0.000515
in toluene, 325.15 K | 0.000573
in toluene, 330.15 K | 0.000623
